Reference: article PMC6010545, “Identification of a Novel Polyamine Scaffold With Potent Efflux Pump Inhibition Activity Toward Multi-Drug Resistant Bacterial Pathogens” (Frontiers in Microbiology, 2018)
≈ marks a conversion by molar mass, not a printed value. Where two headings read alike, the source gives them in different places. Residues, ends and D or L forms follow the SMILES beside them. No end group written: not given here. *: point of attachment. βNA = c1ccc2cc(N*)ccc2c1

Assays:
[1] = tested on: P. aeruginosa; experiment: Minimum inhibitory concentrations of antibiotics, P. aeruginosa isolates; assay type: cell-based; details: Pseudomonas aeruginosa, read-out: minimal inhibitory concentration
Method: (§1) The bacterial strains used in this study are multi-drug resistant clinical isolates that have previously been described (Supplementary Table S1; [Fleeman et al., 2015]). Organisms were grown in tryptic soy broth (TSB) for overnight cultures and cation adjusted Mueller Hinton broth (CA-MH II) was used for experimental procedures. All incubations were performed at 37°C. The minimum inhibitory concentrations (MICS) for all antibiotics tested against these organisms are shown in Supplementary Table S1.

[2] = MTT cytotoxicity assay; assay type: cell-based; details: human, 25 μg mL^-1, 48 h, read-out: percent recovery (cell viability)
Method: To assess toxicity of polyamine compounds we used HepG2 human liver carcinoma cells and Hek293T human embryonic kidney epithelial cells. The viability of cell lines was determined using a 3-(4,5-dimethylthiazol-2-yl)-2,5-diphenyltetrazolium bromide (MTT) molecular probe as previously described by our group ([Fleeman et al., 2015]). Briefly, 247, 266, 271 (Hek293T), or 250, 271, 314 (HepG2), alongside control efflux pump inhibitor PaβN, were diluted in 10% DMF from 25 μg mL^-1 to 3 μg mL^-1 using twofold dilutions, before being added to cells in DMEM with 10% FBS and 1% penicillin/streptomycin. Cells were then incubated for 48 h at 37°C with 5% CO2. Following this, viability was assessed by the addition of MTT and measuring the OD570 in a Biotek plate reader. Percent recovery was determined compared to no drug controls.

[3] = tested on: A. baumannii 1643; experiment: Minimum inhibitory concentrations of antibiotics, A. baumannii isolate; assay type: cell-based; details: Acinetobacter baumannii; strain 1643; read-out: minimal inhibitory concentration
Method: as §1

[4] = tested on: S. aureus; experiment: microbe, parasite or virus in culture; assay type: cell-based; details: Staphylococcus aureus
Method: as §1

[5] = tested on: P. aeruginosa (1419); experiment: Bacterial membrane depolarization (DiSC3 dye); assay type: cell-based; details: 25 μg mL^-1
Method: To determine the level of membrane depolarization by polyamine compounds a 3,3′-dipropylthiadicarbocyanine Iodide (DiSC3) fluorescence dye was used. Exponentially growing cultures were prepared as described above, before being harvested by centrifugation. Cells were next washed in buffer a [5 mM Hepes (pH 7.2), 5 mM glucose] and resuspended to an OD600 of 0.2 in the same buffer containing 100 mM KCL and 2 μM DiSC3. Samples were allowed to equilibrate for 15 min at room temperature to ensure uptake and quenching of the dye in bacterial membranes. Cells were aliquoted into 96-well plates and polyamines were added alongside the known efflux inhibitor PAβN (all at 25 μg mL^-1). Nisin (25 μg mL^-1) was used as a positive control to display depolarization effects. A Biotek plate reader was used to monitor fluorescence of wells, with a 622 nm excitation and 670 nm emission. For graphical representation, the maximum relative fluorescence at 2 min was used for comparison of lead agents to controls.

[6] = tested on: tetracycline-resistant P. aeruginosa isolate 1419; experiment: Checkerboard potentiation assay with tetracycline; assay type: cell-based, Pseudomonas aeruginosa; details: Pseudomonas aeruginosa, average across replicates
Method: Scaffold ranking library samples and individual polyamines were screened using checkerboard inhibitory assays to assess the potentiation of tetracycline and chloramphenicol. The test utilized a 96-well plate microtiter assay where the concentration of the scaffold or individual polyamine was decreased from 25 to 0.8 μg mL^-1 (average molarity of mixture samples 65 to 4 μM) along the rows, and the concentration of tetracycline or chloramphenicol was increased from 0.4 to 100 μM across the columns. […] However, with the known antibiotics, we report EC90 values in μM, which more accurately describes purified compounds. Plates were incubated statically at 37°C for 20 h, and the optical density (OD600) was determined using a Synergy 2 plate reader (BioTek). Potentiation modeling (detailed below) was performed to determine fold change in the 50 and 90% effective concentration of tetracycline or chloramphenicol.
Potentiation was quantified using a mathematical model developed by our group to assess the ability of library samples and individual compounds to effectively enhance the activity of tetracycline or chloramphenicol ([Hoel, 1987]). […] In this way, only libraries and compounds that potentiated tetracycline or chloramphenicol activity were pursued. The model is based on the following equation for modeling the percentage activity of a mixture of two agents with independent action ([Hoel, 1987]):
%Antibiotic & Comp(X1,X2)=%Antibiotic(X1)+%Comp(X2)−%Antibiotic(X1)⋅%Comp(X2)
Here, x1 and x2 are the concentrations of antibiotic (tetracycline or chloramphenicol) and library/compound (Comp) tested, respectively. This equation can be rearranged to model the effective percent activity (EC) of the antibiotic alone, after accounting for compound activity:
Eff%Antibiotic(X1)=%Antibiotic & Compound(X1,X2)−%Compound(X2)/1−%Compound(X2)
Thus, the model-adjusted checkerboards show the antibiotic activity post-potentiation, and from that one can determine the true change in Mic.

[7] = tested on: P. aeruginosa (1419); experiment: Bactericidal assessment in combination with tetracycline; details: Pseudomonas aeruginosa, read-out: percent recovery (bacterial viability)
Method: Lead agents were screened for bactericidal activity as described by us previously ([Van Horn et al., 2014]; [Fleeman et al., 2015]), with the following modifications. Varying concentrations of tetracycline (0, 12, 25, and 50 μM) were used in combination with the MPC (25 μM) of lead agents 247, 250, 266, 271, and 314 against P. aeruginosa. […] Biofilm experiments were performed similar to those described by us previously ([Fleeman et al., 2015]; [von Salm et al., 2016]), with the following modifications. Polyamine agents 247, 250, 266, 271, and 314 were added at MPC into biofilm containing wells alongside varying concentrations of tetracycline (0, 12, 25, and 50 μM). Cellular viability was determined by serial dilution after a 20-h incubation at 37°C. Values were converted to percent recovery using no treatment controls. All data was generated from three biological replicates and two technical replicates.

## C[C@H]1[C@H](NC(=O)/C(=N\OC(C)(C)C(=O)O)c2csc(N)n2)C(=O)N1S(=O)(=O)O [aztreonam]
[1]; strain 1418
  MIC: 6 µM (≈ 2.61 µg/mL)
[1]; strain 1419
  MIC: 1 µM (≈ 0.435 µg/mL)

## N=C(N)NCCC[C@H](NC(=O)[C@@H](N)Cc1ccccc1)C(=O)Nc1ccc2ccccc2c1 [PAβN, phenylalanine arginine beta naphthalimide, reference compound] (H-Phe-Arg-βNA)
[2]; Hek293T human embryonic kidney epithelial cells, vs solvent only controls
  recovery at 48 h, 25 μg mL^-1: 63%
[2]; HepG2 human liver carcinoma cells
  recovery at 48 h, 25 μg mL^-1: 68%

## C[C@H]1COc2c(N3CCN(C)CC3)c(F)cc3c(=O)c(C(=O)O)cn1c23 [levofloxacin]
[3]
  MIC: 100 µM (≈ 36.1 µg/mL)

## O=C(N[C@H](CO)[C@H](O)c1ccc([N+](=O)[O-])cc1)C(Cl)Cl [chloramphenicol]
[4]; USA100, strain 635 (USA100), read-out: minimal inhibitory concentration
  MIC: 110 µM (≈ 35.5 µg/mL)
[4]; USA300, read-out: minimal inhibitory concentration, strain JE-2 norA knockout (USA300)
  MIC: 100 µM (≈ 32.3 µg/mL)
[4]; USA300, strain JE-2 parental (USA300), read-out: minimal inhibitory concentration
  MIC: 110 µM (≈ 35.5 µg/mL)
[3]
  MIC: 85 µM (≈ 27.5 µg/mL)
[5]
  membrane depolarization (DiSC3 fluorescence change): decreased in florescence
[1]; strain 1418
  MIC: > 619 µM
[1]; strain 1419
  MIC: 150 µM (≈ 48.5 µg/mL)

## nisin (ITSISLCTPGCKTGALMGCNMKTATCHCSIHVSK; cysteine pairing not given here; also: lantibiotic nisin-A; UniProt P13068 24-57, looked up) [positive control for membrane depolarization]
[5]
  membrane depolarization (DiSC3 fluorescence change): strong increase in fluorescence

## CN(C)[C@@H]1C(O)=C(C(N)=O)C(=O)[C@@]2(O)C(O)=C3C(=O)c4c(O)cccc4[C@@](C)(O)[C@H]3C[C@@H]12 [tetracycline]
[6]; no polyamine, read-out: tetracycline alone EC50
  EC50: 47.8 µM
[6]; no library or polyamine, read-out: tetracycline alone EC90
  EC90: 82.5 µM
[7]
  viability at 12 µM: 53%
  viability at 25 µM: 35%
  viability at 50 µM: 1%
[1]; strain 1418
  MIC: 200 µM (≈ 88.9 µg/mL)
[1]; strain 1419
  MIC: 100 µM (≈ 44.4 µg/mL)
